pIC50: −log10 of the molar value. Read-outs that look alike come from different tables or passages of the source.

In one test the target is KRas G12C (Homo sapiens, UniProt P01116, C118S/C51S/C80L/G12C). Description: KRas G12C Modification Assay (LCMS detection of covalent adduct). The test is classed as binding. The following applies: 5 μM compound, 3 hours. As for the experimental part: A 10 μL aliquot of each protein solution was then transferred to a 384 well microtiter plate. Initial compound stocks were generated at fifty times their desired final assay concentration in DMSO.
Exemplary compounds of Formula (I) were diluted 25-fold into K-Ras Assay Buffer to a final of two times their final concentration. A 10 μL aliquot of each diluted compound solution was then added to each of the protein solutions in the microtiter plate to initiate reaction. […] At each time point, the reactions were quenched with 20 μL of a 25 mM acetic acid solution. […] Once all reactions were quenched, the plates were heat sealed and the samples were injected into a LC/MS system for data acquisition.
Samples were injected in their liquid phase onto a C-3 reverse phase column to remove assay buffer and prepare the samples for mass spectrometer. The proteins were eluted from the column using an acetonitrile gradient and fed directly into the mass analyzer. Initial raw data analysis took place in Agilent MassHunter software immediately post data acquisition.
Raw data analysis of the intact protein was exclusively a deconvolution of the multiple charge states of each protein in solution using a maximum entropy deconvolution provided in Mass Hunter. To minimize complexity, only the data over limited mass ranges were considered for analysis, with a minimum of one Dalton mass step intervals. The heights of all masses identified during raw data analysis were exported to be further analyzed in Spotfire® data analysis software.
Final data analysis was a multistep process in the Spotfire® data analysis software package. Briefly, each protein mass was calculated as a percent of the total signal of that sample, that percentage was then normalized to the percentage of signal of the protein in the absence of reactive compounds. Those normalized signals were reported as normalized percent of control (POC). […] Key: “A”≤25% POC; “B”>25% POC≤50% POC; “C”>50% POC and ND=not determined.

For test [1], the system named is Phospho-ERK in NCI-H358 cells expressing KRas G12C. Description: Cellular inhibition of KRas G12C by Phospho-ERK measurement in NCI-H358 cells. The test is classed as cell-based. The following applies: Homo sapiens, read-out: IC50 (pERK(Thr202/Tyr204) normalized with GAPDH). In a few lines:
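After 8–12 h attachment, NCI-H358 cells were treated with compounds for 3 h (0.5% DMSO final), fixed, methanol-permeabilized and immunostained. pERK(Thr202/Tyr204) was read by infrared imaging and normalized to GAPDH as percent of DMSO control. IC50 came from a 4-parameter fit.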

[2] abbreviates: NCI-H358 cells, 3 hours compound treatment.

`C=CC(=O)N1CCN(c2nc(OC[C@@H]3CCCN3C)nc3c2CCN(c2c(C)c(O)cc4ccccc24)C3)CC1` [Example 175, (S)-1-(4-(7-(3-hydroxy-2-methylnaphthalen-1-yl)-2-((1-methylpyrrolidin-2-yl)methoxy)-5,6,7,8-tetrahydropyrido[3,4-d]pyrimidin-4-yl)piperazin-1-yl)prop-2-en-1-one]: the “POC (normalized percent of control, KRas G12C modification)” value on KRas G12C was “C (“C”>50% POC)”. The pIC50 in test [1] (setting [2]) is 6.00 to 9.00.
As for `C=CC(=O)N1CCN(c2nc(OC[C@@H]3CCCN3C)nc3c2CCN(c2cc(O)cc4ccccc24)C3)CC1CC#N` (stereo partly drawn) [Example 182, 2-[4-[7-(3-hydroxy-1-naphthyl)-2-[[(2S)-1-methylpyrrolidin-2-yl]methoxy]-6,8-dihydro-5H-pyrido[3,4-d]pyrimidin-4-yl]-1-prop-2-enoyl-piperazin-2-yl]acetonitrile], the “POC (normalized percent of control, KRas G12C modification)” value at KRas G12C was “C (“C”>50% POC)”. Also, the pIC50 in test [1] (setting [2]) is 6.00 to 9.00.
For `C=CC(=O)N1CCN(c2nc(OC[C@@H]3CCCN3C)nc3c2CCN(c2c(F)c(O)cc4ccccc24)C3)CC1` [Example 249, 1-[4-[7-(2-fluoro-3-hydroxy-1-naphthyl)-2-[[(2S)-1-methylpyrrolidin-2-yl]methoxy]-6,8-dihydro-5H-pyrido[3,4-d]pyrimidin-4-yl]piperazin-1-yl]prop-2-en-1-one] the same measures were “C (“C”>50% POC)” and 6.00 to 9.00.
For `C=CC(=O)N1CCN(c2nc(OC[C@@H]3C[C@@H](F)CN3C)nc3c2CCN(c2cccc4ccccc24)C3)CC1CC#N` (stereo partly drawn) [Example 220, 2-(1-acryloyl-4-(2-(((2S,4R)-4-fluoro-1-methylpyrrolidin-2-yl)methoxy)-7-(naphthalen-1-yl)-5,6,7,8-tetrahydropyrido[3,4-d]pyrimidin-4-yl)piperazin-2-yl)acetonitrile], on KRas G12C, the “POC (normalized percent of control, KRas G12C modification)” value is “C (“C”>50% POC)”. Besides, the pIC50 in test [1] (setting [2]) is 6.00 to 9.00.
In the same order, the values of `C=CC(=O)N1CCN(c2nc(OC[C@@H]3CCCN3CC3CC3)nc3c2CCN(c2cccc4ccccc24)C3)CC1CC#N` (stereo partly drawn) [Example 257, 2-(1-acryloyl-4-(2-(((S)-1-(cyclopropylmethyl)pyrrolidin-2-yl)methoxy)-7-(naphthalen-1-yl)-5,6,7,8-tetrahydropyrido[3,4-d]pyrimidin-4-yl)piperazin-2-yl)acetonitrile] are “C (“C”>50% POC)” and 6.00 to 9.00.
With `C=CC(=O)N1CCN(c2nc(OC[C@@H]3CCCN3C)nc3c2CCN(c2c(C)ccc4[nH]ncc24)C3)CC1` [Example 155, (S)-1-(4-(7-(5-methyl-1H-indazol-4-yl)-2-((1-methylpyrrolidin-2-yl)methoxy)-5,6,7,8-tetrahydropyrido[3,4-d]pyrimidin-4-yl)piperazin-1-yl)prop-2-en-1-one], the “POC (normalized percent of control, KRas G12C modification)” value at KRas G12C is “C (“C”>50% POC)”. In test [1] (setting [2]), the pIC50 was 6.00 to 9.00.
For `C=CC(=O)N1CCN(c2nc(OCCN(C)C)nc3c2CCN(c2cc(O)cc4ccccc24)C3)CC1CC#N` (stereo not drawn) [Example 170, 2-(1-acryloyl-4-(2-(2-(dimethylamino)ethoxy)-7-(3-hydroxynaphthalen-1-yl)-5,6,7,8-tetrahydropyrido[3,4-d]pyrimidin-4-yl)piperazin-2-yl)acetonitrile], the “POC (normalized percent of control, KRas G12C modification)” value at KRas G12C is listed as “C (“C”>50% POC)”. Also, the pIC50 in test [1] (setting [2]) is 6.00 to 9.00.
In the same order, the values of `C=CC(=O)N1CCN(c2nc(OCCCN3CCOCC3)nc3c2CCN(c2c(C(F)(F)F)ccc4[nH]ncc24)C3)CC1` [Example 180, 1-[4-[2-(3-morpholinopropoxy)-7-[5-(trifluoromethyl)-1H-indazol-4-yl]-6,8-dihydro-5H-pyrido[3,4-d]pyrimidin-4-yl]piperazin-1-yl]prop-2-en-1-one] are “C (“C”>50% POC)” and 6.00 to 9.00.
For `C=CC(=O)N1CCN(c2nc(OCCCN3C[C@H]4C[C@@H]3CO4)nc3c2CCN(c2cc(O)cc4ccccc24)C3)CC1` [Example 185, 1-(4-(2-(3-((1R,4R)-2-oxa-5-azabicyclo[2.2.1]heptan-5-yl)propoxy)-7-(3-hydroxynaphthalen-1-yl)-5,6,7,8-tetrahydropyrido[3,4-d]pyrimidin-4-yl)piperazin-1-yl)prop-2-en-1-one], the “POC (normalized percent of control, KRas G12C modification)” value on KRas G12C was “C (“C”>50% POC)”. Also, the pIC50 in test [1] (setting [2]) was 6.00 to 9.00.
Consider `C=CC(=O)N1CCN(c2nc(OC[C@@H]3CCCN3C)nc3c2CCN(c2cccc4ccccc24)C3)C[C@@H]1CC#N` [Example 234, 2-((S)-1-acryloyl-4-(2-(((S)-1-methylpyrrolidin-2-yl)methoxy)-7-(naphthalen-1-yl)-5,6,7,8-tetrahydropyrido[3,4-d]pyrimidin-4-yl)piperazin-2-yl)acetonitrile], for which the “POC (normalized percent of control, KRas G12C modification)” value on KRas G12C is on record as “C (“C”>50% POC)”. Besides, the pIC50 in test [1] (NCI-H358, 3 h) is 6.00 to 9.00.
As to `C=CC(=O)N1CCN(c2nc(O[C@H](C)CN(C)CC)nc3c2CCN(c2cc(O)cc4ccccc24)C3)CC1` [Example 131, 1-[4-[2-[(1R)-2-[ethyl(methyl)amino]-1-methyl-ethoxy]-7-(3-hydroxy-1-naphthyl)-6,8-dihydro-5H-pyrido[3,4-d]pyrimidin-4-yl]piperazin-1-yl]prop-2-en-1-one], the “POC (normalized percent of control, KRas G12C modification)” value at KRas G12C was “C (“C”>50% POC)”. In addition, the pIC50 in test [1] (setting [2]) is 6.00 to 9.00.
For `C=CC(=O)N1CCN(c2nc(OC[C@@H]3CCCN3C)nc3c2CCN(c2c(C(F)(F)F)ccc4[nH]ncc24)C3)CC1CC#N` (stereo partly drawn) [Example 149, 2-[4-[2-[[(2S)-1-methylpyrrolidin-2-yl]methoxy]-7-[5-(trifluoromethyl)-1H-indazol-4-yl]-6,8-dihydro-5H-pyrido[3,4-d]pyrimidin-4-yl]-1-prop-2-enoyl-piperazin-2-yl]acetonitrile] the same measures were “B (“B”>25% POC≤50% POC)” and 6.00 to 9.00.
As to `C=CC(=O)N1CCN(c2nc(OC[C@]3(C)CCCN3C)nc3c2CCN(c2cccc4ccccc24)C3)CC1CC#N` (stereo partly drawn) [Example 251, 2-(1-acryloyl-4-(2-(((S)-1,2-dimethylpyrrolidin-2-yl)methoxy)-7-(naphthalen-1-yl)-5,6,7,8-tetrahydropyrido[3,4-d]pyrimidin-4-yl)piperazin-2-yl)acetonitrile], the “POC (normalized percent of control, KRas G12C modification)” value at KRas G12C was “C (“C”>50% POC)”. Also, in test [1] (setting [2]), the pIC50 was 6.00 to 9.00.
On to `CC#CC(=O)N1CCN(c2nc(OC[C@@H]3CCCN3C)nc3c2CCN(c2cccc4ccccc24)C3)CC1CC#N` (stereo partly drawn) [Example 242, 2-(1-(but-2-ynoyl)-4-(2-(((S)-1-methylpyrrolidin-2-yl)methoxy)-7-(naphthalen-1-yl)-5,6,7,8-tetrahydropyrido[3,4-d]pyrimidin-4-yl)piperazin-2-yl)acetonitrile], for which the “POC (normalized percent of control, KRas G12C modification)” value on KRas G12C is recorded as “C (“C”>50% POC)”. Besides, the pIC50 in test [1] (NCI-H358, 3 h) was 6.00 to 9.00.
On to `C=CC(=O)N1CCN(c2nc(OCCCO)nc3c2CCN(c2cccc4ccccc24)C3)CC1CC#N` (stereo not drawn) [Example 231, 2-(1-acryloyl-4-(2-(3-hydroxypropoxy)-7-(naphthalen-1-yl)-5,6,7,8-tetrahydropyrido[3,4-d]pyrimidin-4-yl)piperazin-2-yl)acetonitrile], for which the “POC (normalized percent of control, KRas G12C modification)” value on KRas G12C was “C (“C”>50% POC)”. For the same molecule, the pIC50 in test [1] (setting [2]) was 6.00 to 9.00.
As for `C=CC(=O)N1CCN(c2nc(OC[C@@H]3CCCN3C)nc3c2CCN(c2cccc4ccncc24)C3)CC1CC#N` (stereo partly drawn) [Example 244, 2-[4-[7-(8-isoquinolyl)-2-[[(2S)-1-methylpyrrolidin-2-yl]methoxy]-6,8-dihydro-5H-pyrido[3,4-d]pyrimidin-4-yl]-1-prop-2-enoyl-piperazin-2-yl]acetonitrile], the “POC (normalized percent of control, KRas G12C modification)” value at KRas G12C was “C (“C”>50% POC)”. Moreover, in test [1] (setting [2]), the pIC50 is 6.00 to 9.00.
In the same order, the values of `C=CC(=O)N1CCN(c2nc(OC[C@@H]3CCCN3C)nc3c2CCN(c2cccc4ccc(C)cc24)C3)CC1CC#N` (stereo partly drawn) [Example 245, 2-[4-[7-(7-methyl-1-naphthyl)-2-[[(2S)-1-methylpyrrolidin-2-yl]methoxy]-6,8-dihydro-5H-pyrido[3,4-d]pyrimidin-4-yl]-1-prop-2-enoyl-piperazin-2-yl]acetonitrile] are “C (“C”>50% POC)” and 6.00 to 9.00.
`C=CC(=O)N1CCN(c2nc(OC[C@H]3CCCN3C)nc3c2CCN(c2cccc4ccccc24)C3)C[C@@H]1CC#N` [Example 267, 2-((S)-1-acryloyl-4-(2-(((R)-1-methylpyrrolidin-2-yl)methoxy)-7-(naphthalen-1-yl)-5,6,7,8-tetrahydropyrido[3,4-d]pyrimidin-4-yl)piperazin-2-yl)acetonitrile]: on KRas G12C, the “POC (normalized percent of control, KRas G12C modification)” value is “C (“C”>50% POC)”. In test [1] (NCI-H358, 3 h), the pIC50 is 6.00 to 9.00.

Source of the values: patent US11267812B2 (Mirati Therapeutics, Inc., priority 2016, dated 2022).
